Data taken from patent US10590143B2, “Herbicidally active (alkynyl-phenyl)-substituted cyclic dione compounds and derivatives thereof” (Syngenta Limited, priority 2013, dated 2020).
Where two headings read alike, the source gives them in different places.

How the values were obtained:
Assay in all cases: Biological Example 1 glasshouse assay for herbicidal activity
Format in all cases: in vivo
[1] = system: Echinochloa crus-galli (ECHCG); details: Echinochloa crus-galli, 312 h, 13 days after application, read-out: percentage phytotoxicity ECHCG
Experimental: (§1) Seeds of a variety of test plant species were sown in standard soil** in pots. After cultivation for one day (pre-emergence) or after 8 days cultivation (post-emergence) under controlled conditions in a glasshouse (at 24/16° C., day/night; 14 hours light; 65% humidity), the plants were sprayed with an aqueous spray solution derived from the formulation of the technical active ingredient (the test herbicide) in acetone/water (50:50) solution containing 0.5% Tween 20 (polyoxyethylene sorbitan monolaurate, CAS Reg. No. 9005-64-5). The test plants were then grown on under controlled conditions in a glasshouse (at 24/16° C., day/night; 14 hours light; 65% humidity) and watered twice daily. 13 Days after application of the test herbicide, for pre- and post-emergence, the test was evaluated visually for percentage phytotoxicity to each plant (where 100%=total damage to plant; 0%=no damage to plant). Generally, each test herbicide is only tested on 1 plant per plant species for each application rate tested and for each application timing. **The “standard soil” in Biological Example 1 is usually a “sand” or “sandy loam” type of soil.
(§2) Dicotyledonous weeds: ABUTH=Abutilon theophrasti; AMARE=Amaranthus retroflexus. Grassy monocotyledonous weeds: SETFA=Setaria faberi; ALOMY=Alopecurus myosuroides; ECHCG=Echinochloa crus-galli; ZEAMX=Zea mays (corn, maize, e.g. volunteer corn).

[2] = system: Alopecurus myosuroides (ALOMY); details: 312 h, 13 days after application, read-out: percentage phytotoxicity ALOMY
Experimental: as §1, §2

[3] = system: Zea mays (ZEAMX, corn, maize, e.g. volunteer corn); details: Zea mays, 312 h, 13 days after application, read-out: percentage phytotoxicity ZEAMX
Experimental: as §1, §2

Setaria faberi (SETFA) = details: 312 h, 13 days after application, read-out: percentage phytotoxicity SETFA
Experimental: as §1, §2

[4] = system: Amaranthus retroflexus (AMARE); details: Amaranthus retroflexus, 312 h, 13 days after application, read-out: percentage phytotoxicity AMARE
Experimental: as §1, §2

[5] = system: Abutilon theophrasti (ABUTH); details: 312 h, 13 days after application, read-out: percentage phytotoxicity ABUTH
Experimental: as §1, §2

Row | SMILES | pest or weed control at 8 g/ha ([1]; post-emergence, post-emergence) [%] | pest or weed control at 30 g/ha ([1]; post-emergence, post-emergence) [%] | pest or weed control at 250 g/ha ([1]; post-emergence, post-emergence) [%] | pest or weed control at 30 g/ha ([1]; pre-emergence, pre-emergence) [%] | pest or weed control at 250 g/ha ([1]; pre-emergence, pre-emergence) [%] | pest or weed control at 8 g/ha ([2]; post-emergence) [%] | pest or weed control at 30 g/ha ([2]; post-emergence) [%] | pest or weed control at 250 g/ha ([2]; post-emergence) [%] | pest or weed control at 30 g/ha ([2]; pre-emergence) [%] | pest or weed control at 250 g/ha ([2]; pre-emergence) [%] | pest or weed control at 8 g/ha ([3]; post-emergence, post-emergence) [%] | pest or weed control at 30 g/ha ([3]; post-emergence, post-emergence) [%] | pest or weed control at 250 g/ha ([3]; post-emergence, post-emergence) [%] | pest or weed control at 30 g/ha ([3]; pre-emergence, pre-emergence) [%] | pest or weed control at 250 g/ha ([3]; pre-emergence, pre-emergence) [%] | pest or weed control at 8 g/ha (Setaria faberi (SETFA); post-emergence, post-emergence) [%] | pest or weed control at 30 g/ha (Setaria faberi (SETFA); post-emergence, post-emergence) [%] | pest or weed control at 250 g/ha (Setaria faberi (SETFA); post-emergence, post-emergence) [%] | pest or weed control at 30 g/ha (Setaria faberi (SETFA); pre-emergence, pre-emergence) [%] | pest or weed control at 250 g/ha (Setaria faberi (SETFA); pre-emergence, pre-emergence) [%] | further results
1 | C#Cc1cc(F)c(C2C(=O)C3CCC(C3)C2=O)c(OC)c1 (stereo not drawn) [Compound B1] | 20 | 70 | 100 | 50 | 90 | 0 | 20 | 80 | 10 | 90 | 80 | 90 | 100 | 70 | 100 | 70 | 70 | 90 | 60 | 100 | pest or weed control at 8 g/ha ([1]; pre-emergence, pre-emergence): 50%; pest or weed control at 8 g/ha ([2]; pre-emergence): 0%; pest or weed control at 8 g/ha ([3]; pre-emergence, pre-emergence): 0%; pest or weed control at 8 g/ha (Setaria faberi (SETFA); pre-emergence, pre-emergence): 40%; pest or weed control at 8 g/ha ([4]; post-emergence, post-emergence): 0%; pest or weed control at 30 g/ha ([4]; post-emergence, post-emergence): 0%; pest or weed control at 250 g/ha ([4]; post-emergence, post-emergence): 20%; pest or weed control at 8 g/ha ([4]; pre-emergence, pre-emergence): 30%; pest or weed control at 30 g/ha ([4]; pre-emergence, pre-emergence): 50%; pest or weed control at 250 g/ha ([4]; pre-emergence, pre-emergence): 30%; pest or weed control at 8 g/ha ([5]; post-emergence, post-emergence): 50%; pest or weed control at 30 g/ha ([5]; post-emergence, post-emergence): 50%; pest or weed control at 250 g/ha ([5]; post-emergence, post-emergence): 70%; pest or weed control at 8 g/ha ([5]; pre-emergence, pre-emergence): 10%; pest or weed control at 30 g/ha ([5]; pre-emergence, pre-emergence): 20%; pest or weed control at 250 g/ha ([5]; pre-emergence, pre-emergence): 0%
2 | CC#Cc1cc(F)c(C2=C(OC(=O)OCC)C3CCC(C3)C2=O)c(OC)c1 (stereo not drawn) [Compound P2] | 90 | 100 | 100 | 80 | 100 | 70 | 90 | 90 | 80 | 100 | 90 | 100 | 100 | 90 | 100 | 60 | 90 | 100 | 50 | 90 | pest or weed control at 8 g/ha ([4]; post-emergence, post-emergence): 20%; pest or weed control at 30 g/ha ([4]; post-emergence, post-emergence): 20%; pest or weed control at 250 g/ha ([4]; post-emergence, post-emergence): 40%; pest or weed control at 30 g/ha ([4]; pre-emergence, pre-emergence): 40%; pest or weed control at 250 g/ha ([4]; pre-emergence, pre-emergence): 70%; pest or weed control at 8 g/ha ([5]; post-emergence, post-emergence): 10%; pest or weed control at 30 g/ha ([5]; post-emergence, post-emergence): 30%; pest or weed control at 250 g/ha ([5]; post-emergence, post-emergence): 80%; pest or weed control at 30 g/ha ([5]; pre-emergence, pre-emergence): 20%; pest or weed control at 250 g/ha ([5]; pre-emergence, pre-emergence): 60%
